Test results from BigSolDB 2.1.

O=C(O)CCCCCCCCCCC(=O)O
solubility (mole fraction)
Details	288.15 K	293.15 K	298.15 K	303.15 K	308.15 K	313.15 K	318.15 K	323.15 K
in 2-butanone	0.0025	0.0036	0.005	0.007	0.0097	0.0133	0.0189	0.0255
in 3-pentanone	0.0013	0.0018	0.0026	0.0036	0.005	0.0068	0.0094	0.0128
in acetic acid	0.0032	0.0045	0.006	0.0079	0.0112	0.0155	0.02	0.0268
in acetone	0.003	0.0041	0.0058	0.0077	0.0107	0.0145	0.0193	0.0257
in ethanol	0.0083	0.0107	0.0145	0.0194	0.025	0.0317	0.0408	0.0516
in ethyl acetate	0.0012	0.0017	0.0024	0.0034	0.0048	0.0066	0.009	0.0122
